Tests used:
[1] = tested on: ABUTH (Abutilon theophrasti); assay: Postemergence herbicidal evaluation; assay type: in vivo, Medic.
Outline: (§1)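 Seedlings grown for about two weeks were sprayed postemergence and then kept under standard greenhouse care. Injury was rated visually 4–5 weeks after treatment on a 0–9 scale against untreated controls, and ratings from repeat tests were averaged.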

[2] = tested on: AMBEL (Ambrosia artemisifolia); assay: Postemergence herbicidal evaluation; assay type: in vivo, L.
Outline: as §1

[3] = tested on: CASOB (Cassia obtusifolia); assay: Postemergence herbicidal evaluation; assay type: in vivo, L.
Outline: as §1

[4] = tested on: CHEAL (Chenopodium album); assay: Postemergence herbicidal evaluation; assay type: in vivo, L.
Outline: as §1

[5] = tested on: GALAP (Galium aparine); assay: Postemergence herbicidal evaluation; assay type: in vivo
Outline: as §1

[6] = tested on: ECHCG (Echinochloa crus-galli); assay: Postemergence herbicidal evaluation; assay type: in vivo, (L.) Beau
Outline: as §1

[7] = tested on: GLXMAW (Soybean, Williams); assay: Postemergence herbicidal evaluation; assay type: in vivo, Glycine max, (L.) Merr. cv Williams
Outline: as §1

[8] = tested on: ORYSAT (Rice, Tebonnet); assay: Postemergence herbicidal evaluation; assay type: in vivo, Oryza sativa, (L.) Tebonnet
Outline: as §1

[9] = tested on: ZEAMX (Corn, Field); assay: Postemergence herbicidal evaluation; assay type: in vivo, Zea mays, L.
Outline: as §1

[10] = tested on: ABUTH (Abutilon theophrasti); assay: Preemergence herbicidal evaluation; assay type: in vivo, Medic.; conditions: preemergence, rated 4-5 weeks after treatment
[11] = tested on: AMBEL (Ambrosia artemisifolia); assay: Preemergence herbicidal evaluation; assay type: in vivo, L.; conditions: preemergence, rated 4-5 weeks after treatment
Outline: (§2)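 Greenhouse preemergence test: freshly planted cups were sprayed once with an aqueous acetone solution of compound. Injury was judged visually on a 0–9 scale relative to a control, four to five weeks later.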

[12] = tested on: CASOB (Cassia obtusifolia); assay: Preemergence herbicidal evaluation; assay type: in vivo, L.; conditions: preemergence, rated 4-5 weeks after treatment
Outline: as §2

[13] = tested on: CHEAL (Chenopodium album); assay: Preemergence herbicidal evaluation; assay type: in vivo, L.; conditions: preemergence, rated 4-5 weeks after treatment
Outline: as §2

[14] = tested on: GALAP (Galium aparine); assay: Preemergence herbicidal evaluation; assay type: in vivo; conditions: preemergence, rated 4-5 weeks after treatment
Outline: as §2

[15] = tested on: IPOHE (Ipomoea hederacea); assay: Preemergence herbicidal evaluation; assay type: in vivo, (L.) Jacq.; conditions: preemergence, rated 4-5 weeks after treatment
[16] = tested on: ORYSAT (Rice, Tebonnet); assay: Preemergence herbicidal evaluation; assay type: in vivo, Oryza sativa, (L.) Tebonnet; conditions: preemergence, rated 4-5 weeks after treatment
[17] = tested on: TRZAWR (Wheat, Winter, cv Riband); assay: Preemergence herbicidal evaluation; assay type: in vivo, Triticum aestivum; conditions: preemergence, rated 4-5 weeks after treatment
Outline: as §2

[18] = tested on: CYPSE (Cyperus serotinus); assay: Flooded paddy, preemergence weed control; assay type: in vivo, Rottb.; conditions: rated 3-4 weeks after treatment, 0-9 rating scale
Outline: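 Seeds or propagules were planted 0.5 cm deep in silt loam and flooded to 1.5–3 cm. Compounds in 50/50 v/v aqueous/acetone were pipetted into the flood water at about 0.0080 to 0.1250 kg/ha. After 3–4 weeks in the greenhouse, effect was rated visually on a 0–9 scale versus untreated control.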

[19] = tested on: SAGPY (Sagittaria pygmaea); assay: Flooded paddy, preemergence weed control; assay type: in vivo, L.; conditions: rated 3-4 weeks after treatment, 0-9 rating scale
Outline: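 Under paddy conditions, seeds or vegetative propagules go into the top 0.5 cm of silt loam; the soil is then flooded to 1.5–3 cm and kept so. Treated pots stay in a greenhouse; response is rated 0-9 visually versus control.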

Structure (SMILES): Cc1ccn(-c2nsc3ccc(-n4c(=O)cc(C(F)(F)F)n(C)c4=O)cc23)n1 [Compound 38, 1-methyl-3-[3-(3-methylpyrazol-1-yl)-1,2-benzisothiazol-5-yl]-6-(trifluoromethl)uracil]
- Postemergence herbicidal rating, ABUTH ([1]; rate 0.0320 kg/ha): 9.0
- Postemergence herbicidal rating, ABUTH ([1]; rate 0.0620 kg/ha): 9.0
- Postemergence herbicidal rating, AMBEL ([2]; rate 0.0320 kg/ha): 0.0
- Postemergence herbicidal rating, AMBEL ([2]; rate 0.0620 kg/ha): 0.0
- Postemergence herbicidal rating, CASOB ([3]; rate 0.0320 kg/ha): 0.0
- Postemergence herbicidal rating, CASOB ([3]; rate 0.0620 kg/ha): 1.0
- Postemergence herbicidal rating, CHEAL ([4]; rate 0.0320 kg/ha): 0.0
- Postemergence herbicidal rating, CHEAL ([4]; rate 0.0620 kg/ha): 3.0
- Postemergence herbicidal rating, GALAP ([5]; rate 0.0320 kg/ha): 0.0
- Postemergence herbicidal rating, GALAP ([5]; rate 0.0620 kg/ha): 4.0
- Postemergence herbicidal rating, ECHCG ([6]; rate 0.0320 kg/ha): 0.0
- Postemergence herbicidal rating, ECHCG ([6]; rate 0.0620 kg/ha): 3.0
- Postemergence herbicidal rating, GLXMAW ([7]; rate 0.0320 kg/ha): 5.5
- Postemergence herbicidal rating, GLXMAW ([7]; rate 0.0620 kg/ha): 7.0
- Postemergence herbicidal rating, ORYSAT ([8]; rate 0.0320 kg/ha): 2.5
- Postemergence herbicidal rating, ORYSAT ([8]; rate 0.0620 kg/ha): 3.5
- Postemergence herbicidal rating, ZEAMX ([9]; rate 0.0320 kg/ha): 5.0
- Postemergence herbicidal rating, ZEAMX ([9]; rate 0.0620 kg/ha): 5.5
- ABUTH preemergence herbicidal rating ([10]; Rate 0.0620 kg/ha): 4.0
- ABUTH preemergence herbicidal rating ([10]; Rate 0.1250 kg/ha): 4.0
- ABUTH preemergence herbicidal rating ([10]; Rate 0.2500 kg/ha): 6.0
- AMBEL preemergence herbicidal rating ([11]; Rate 0.0620 kg/ha): 0.0
- AMBEL preemergence herbicidal rating ([11]; Rate 0.1250 kg/ha): 3.0
- AMBEL preemergence herbicidal rating ([11]; Rate 0.2500 kg/ha): 7.0
- CASOB preemergence herbicidal rating ([12]; Rate 0.0620 kg/ha): 0.0
- CASOB preemergence herbicidal rating ([12]; Rate 0.1250 kg/ha): 0.0
- CASOB preemergence herbicidal rating ([12]; Rate 0.2500 kg/ha): 0.0
- CHEAL preemergence herbicidal rating ([13]; Rate 0.0620 kg/ha): 9.0
- CHEAL preemergence herbicidal rating ([13]; Rate 0.1250 kg/ha): 9.0
- CHEAL preemergence herbicidal rating ([13]; Rate 0.2500 kg/ha): 9.0
- GALAP preemergence herbicidal rating ([14]; Rate 0.0620 kg/ha): 5.0
- GALAP preemergence herbicidal rating ([14]; Rate 0.1250 kg/ha): 3.0
- GALAP preemergence herbicidal rating ([14]; Rate 0.2500 kg/ha): 5.0
- IPOHE preemergence herbicidal rating ([15]; Rate 0.0620 kg/ha): 0.0
- IPOHE preemergence herbicidal rating ([15]; Rate 0.1250 kg/ha): 0.0
- IPOHE preemergence herbicidal rating ([15]; Rate 0.2500 kg/ha): 6.0
- ORYSAT preemergence herbicidal rating ([16]; Rate 0.0620 kg/ha): 4.0
- ORYSAT preemergence herbicidal rating ([16]; Rate 0.1250 kg/ha): 5.0
- ORYSAT preemergence herbicidal rating ([16]; Rate 0.2500 kg/ha): 7.0
- TRZAWR preemergence herbicidal rating ([17]; Rate 0.0620 kg/ha): 3.0
- TRZAWR preemergence herbicidal rating ([17]; Rate 0.1250 kg/ha): 4.0
- TRZAWR preemergence herbicidal rating ([17]; Rate 0.2500 kg/ha): 5.0
- herbicidal rating, CYPSE ([18]; rate 0.0320 kg/ha): 9.0
- herbicidal rating, CYPSE ([18]; rate 0.1250 kg/ha): 9.0
- herbicidal rating, SAGPY ([19]; rate 0.0080 kg/ha): 0.0
- herbicidal rating, SAGPY ([19]; rate 0.0320 kg/ha): 4.5
- herbicidal rating, SAGPY ([19]; rate 0.1250 kg/ha): 9.0
